Among the data in ChEMBL document CHEMBL4715730, “Design, synthesis, and pharmacological evaluation of multitarget-directed ligands with both serotonergic subtype 4 receptor (5-HT4R) partial agonist and 5-HT6R antagonist activities, as potential treatment of Alzheimer's disease” (Eur J Med Chem, 2016) are inhibition, Ki and Activity values, retold here.

pKi: −log10 of the molar value. Calls of active or inactive are those of the source. The calls are words filed in the database; no cut-off is given here.

T2 sequence (P50406 whole entry): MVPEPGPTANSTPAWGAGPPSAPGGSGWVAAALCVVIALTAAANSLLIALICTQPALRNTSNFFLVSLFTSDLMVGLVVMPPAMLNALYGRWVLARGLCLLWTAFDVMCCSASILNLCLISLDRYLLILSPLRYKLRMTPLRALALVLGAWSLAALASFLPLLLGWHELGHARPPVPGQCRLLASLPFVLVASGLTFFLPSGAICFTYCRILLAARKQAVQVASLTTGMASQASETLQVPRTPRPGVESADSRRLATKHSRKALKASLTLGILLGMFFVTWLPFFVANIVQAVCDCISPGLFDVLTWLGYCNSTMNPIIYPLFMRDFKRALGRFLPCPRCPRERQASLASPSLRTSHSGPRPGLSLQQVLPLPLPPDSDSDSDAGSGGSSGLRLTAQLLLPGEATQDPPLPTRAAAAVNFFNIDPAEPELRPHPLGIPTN
5-hydroxytryptamine receptor 1D (Rattus norvegicus), sequence (P28565 whole entry): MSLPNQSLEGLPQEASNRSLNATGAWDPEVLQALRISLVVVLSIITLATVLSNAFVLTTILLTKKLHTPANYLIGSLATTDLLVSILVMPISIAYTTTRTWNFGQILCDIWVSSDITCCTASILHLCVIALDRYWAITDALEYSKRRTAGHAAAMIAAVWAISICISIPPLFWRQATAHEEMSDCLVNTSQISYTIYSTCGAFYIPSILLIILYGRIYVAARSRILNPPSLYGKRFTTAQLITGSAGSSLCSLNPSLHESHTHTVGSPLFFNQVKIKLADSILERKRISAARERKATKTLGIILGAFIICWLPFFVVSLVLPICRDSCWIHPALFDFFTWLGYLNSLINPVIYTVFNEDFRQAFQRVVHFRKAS
5-hydroxytryptamine receptor 1B (Rattus norvegicus), sequence (P28564 whole entry): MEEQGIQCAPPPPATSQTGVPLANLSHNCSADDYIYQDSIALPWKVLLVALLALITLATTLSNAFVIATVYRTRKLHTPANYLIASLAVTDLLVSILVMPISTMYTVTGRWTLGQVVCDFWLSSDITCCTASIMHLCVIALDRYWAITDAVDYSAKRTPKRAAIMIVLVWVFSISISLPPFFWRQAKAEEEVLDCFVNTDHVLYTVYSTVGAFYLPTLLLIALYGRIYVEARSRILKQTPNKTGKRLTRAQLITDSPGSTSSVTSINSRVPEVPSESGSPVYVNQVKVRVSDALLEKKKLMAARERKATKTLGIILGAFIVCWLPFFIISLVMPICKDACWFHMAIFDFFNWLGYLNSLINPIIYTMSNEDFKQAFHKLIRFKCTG

One data set addresses 5-hydroxytryptamine receptor 1B (Rattus norvegicus) (UniProt P28564). Description: Displacement of [125I]-CYP from rat brain 5-HT1B receptor at 10 uM after 120 mins by scintillation counting analysis relative to control. Type of data set: tissue-based.
Conditions: not given
`COc1cc(N)c(Cl)cc1C(=O)CCC1CCN(CCNS(=O)(=O)c2ccc(N)c(Br)c2)CC1` had an inhibition of 62.3%.

For another data set, the target named is 5-hydroxytryptamine receptor 4 (Cavia porcellus) (UniProt O70528). Kind of data set: Displacement of [3H]-GR113808 from guinea pig brain 5HT4 receptor at 1 uM in presence of serotonin incubated for 30 mins. It is filed as tissue-based.
5-hydroxytryptamine receptor 4 (Cavia porcellus), sequence (O70528 whole entry): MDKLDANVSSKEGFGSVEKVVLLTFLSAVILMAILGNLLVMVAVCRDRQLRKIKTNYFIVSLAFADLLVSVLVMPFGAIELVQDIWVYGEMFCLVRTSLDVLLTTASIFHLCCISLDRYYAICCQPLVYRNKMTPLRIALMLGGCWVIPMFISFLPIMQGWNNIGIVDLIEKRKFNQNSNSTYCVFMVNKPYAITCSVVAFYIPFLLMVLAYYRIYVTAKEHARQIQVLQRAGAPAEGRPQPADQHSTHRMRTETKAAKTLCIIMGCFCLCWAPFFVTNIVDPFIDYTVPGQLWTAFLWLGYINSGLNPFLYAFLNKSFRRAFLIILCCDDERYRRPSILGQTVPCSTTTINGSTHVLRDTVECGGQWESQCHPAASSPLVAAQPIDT
Conditions: not given
Turning to `COc1ccc(S(=O)(=O)N2CCC(CCC(=O)c3cc(Cl)c(N)cc3OC)CC2)cc1`, the inhibition turned out to be 20%.

Still in this data set, the particulars now being: filed as agonist.
Regarding `COc1cc(N)c(Cl)cc1C(=O)CCC1CCN(CCNS(=O)(=O)c2ccc(N)cc2)CC1`, the inhibition stood at 100%.
Still for that read-out and setting: the same measure for `COc1ccc(S(=O)(=O)NCCN2CCC(CCC(=O)c3cc(Cl)c(N)cc3OC)CC2)cc1OC`: 100%; for `COc1cc(N)c(Cl)cc1C(=O)CCC1CCN(CCNS(=O)(=O)c2ccc(N)c(Br)c2)CC1`: 100%.

A further data set has as its target T1, 5-hydroxytryptamine receptor 1A (Homo sapiens) (UniProt P08908).
T1 sequence (whole entry): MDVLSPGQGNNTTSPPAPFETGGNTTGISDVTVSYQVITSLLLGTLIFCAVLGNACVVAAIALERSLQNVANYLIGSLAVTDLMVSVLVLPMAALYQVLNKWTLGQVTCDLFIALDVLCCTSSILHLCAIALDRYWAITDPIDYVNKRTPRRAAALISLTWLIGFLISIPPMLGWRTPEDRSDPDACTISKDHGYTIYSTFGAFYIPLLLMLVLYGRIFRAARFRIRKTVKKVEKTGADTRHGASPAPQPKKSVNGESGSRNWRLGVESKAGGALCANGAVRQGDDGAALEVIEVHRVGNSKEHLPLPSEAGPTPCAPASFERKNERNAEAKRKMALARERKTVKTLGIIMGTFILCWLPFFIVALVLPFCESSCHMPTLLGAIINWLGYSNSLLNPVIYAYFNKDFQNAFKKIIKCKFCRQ
Kind of data set: Displacement of [3H]8-OH-DPAT from recombinant human 5-HT1A receptor at 10 uM after 60 mins by scintillation counting analysis relative to control.
Conditions: not given
Turning to `COc1cc(N)c(Cl)cc1C(=O)CCC1CCN(CCNS(=O)(=O)c2ccc(N)c(Br)c2)CC1`, the inhibition was 66.1%.

The next data set addresses T2, 5-hydroxytryptamine receptor 6 (Homo sapiens, UniProt P50406). Kind of data set: Displacement of [3H]-LSD from human 5-HT6 receptor expressed in HEK293 cells in presence of serotonin incubated for 60 mins. It is filed as cell-based. The following applies: read-out: Ki.
As for `COc1cc(N)c(Cl)cc1C(=O)CCC1CCN(CCNS(=O)(=O)c2ccc(N)c(Br)c2)CC1`, the pKi is 6.66.

Test system in the next data set: not listed separately
Description: Effect on spontaneous locomotory activity in NMRI mouse at 100 mg/kg, ip measured for 30 mins. It is filed as organism-based. To be noted: in vivo, 0.5 h.
Regarding `COc1cc(N)c(Cl)cc1C(=O)CCC1CCN(CCNS(=O)(=O)c2ccc(N)c(Br)c2)CC1`, the Activity entry is recorded as “Non-Toxic”.

A further data set concerns the target T2, 5-hydroxytryptamine receptor 6. Description: Displacement of [3H]-LSD from human 5-HT6 receptor expressed in HEK293 cells at 0.01 uM in presence of serotonin incubated for 60 mins.
Conditions: not given
Type of data set: cell-based.
For `COc1cc(N)c(Cl)cc1C(=O)CCC1CCN(CCNS(=O)(=O)c2ccc(N)cc2)CC1`, the inhibition is 7%.
Same read-out and setting: with `COc1ccc(S(=O)(=O)NCCN2CCC(CCC(=O)c3cc(Cl)c(N)cc3OC)CC2)cc1OC` the figure was 3%.
Turning to `COc1cc(N)c(Cl)cc1C(=O)CCC1CCN(CCNS(=O)(=O)c2ccc(N)c(Br)c2)CC1`, the inhibition was determined as 39%.
For the compound `COc1ccc(S(=O)(=O)N2CCC(CCC(=O)c3cc(Cl)c(N)cc3OC)CC2)cc1`, the inhibition result is “inactive”.

Test system in a further data set: not listed separately
Kind of data set: Toxicity in NMRI mouse assessed as neurological changes upto 100 mg/kg, ip measured 0.5 to 24 hrs. Type of data set: organism-based. The following applies: in vivo, time 0.5-24 hrs.
Consider `COc1cc(N)c(Cl)cc1C(=O)CCC1CCN(CCNS(=O)(=O)c2ccc(N)c(Br)c2)CC1`, for which the Activity entry is recorded as “Non-Toxic”.

For a further data set, the target named is 5-hydroxytryptamine receptor 2B (Homo sapiens) (UniProt P41595). Description: Displacement of [125I]+/-DOI from human recombinant 5-HT2B receptor at 10 uM after 60 mins by scintillation counting analysis relative to control.
5-hydroxytryptamine receptor 2B (Homo sapiens), sequence (P41595 whole entry): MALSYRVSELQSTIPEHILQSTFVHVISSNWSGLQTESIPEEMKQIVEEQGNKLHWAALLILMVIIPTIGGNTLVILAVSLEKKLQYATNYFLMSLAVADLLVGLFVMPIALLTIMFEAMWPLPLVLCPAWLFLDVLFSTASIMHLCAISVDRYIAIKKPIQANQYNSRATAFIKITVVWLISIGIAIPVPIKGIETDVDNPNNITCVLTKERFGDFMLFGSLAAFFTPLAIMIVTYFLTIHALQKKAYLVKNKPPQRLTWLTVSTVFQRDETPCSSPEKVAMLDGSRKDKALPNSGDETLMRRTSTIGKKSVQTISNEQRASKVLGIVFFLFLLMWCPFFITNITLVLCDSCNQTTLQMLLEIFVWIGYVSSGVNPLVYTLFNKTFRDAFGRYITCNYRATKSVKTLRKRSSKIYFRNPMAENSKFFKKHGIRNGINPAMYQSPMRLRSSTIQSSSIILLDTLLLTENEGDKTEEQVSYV
Conditions: not given
Turning to `COc1cc(N)c(Cl)cc1C(=O)CCC1CCN(CCNS(=O)(=O)c2ccc(N)c(Br)c2)CC1`, the inhibition was determined as 100%.

The target in the next data set is T3, 5-hydroxytryptamine receptor 2A (Homo sapiens, UniProt P28223). Description: Displacement of [3H]ketanserin human recombinant 5-HT2A receptor at 10 uM after 60 mins by scintillation counting analysis relative to control.
T3 sequence (P28223 whole entry): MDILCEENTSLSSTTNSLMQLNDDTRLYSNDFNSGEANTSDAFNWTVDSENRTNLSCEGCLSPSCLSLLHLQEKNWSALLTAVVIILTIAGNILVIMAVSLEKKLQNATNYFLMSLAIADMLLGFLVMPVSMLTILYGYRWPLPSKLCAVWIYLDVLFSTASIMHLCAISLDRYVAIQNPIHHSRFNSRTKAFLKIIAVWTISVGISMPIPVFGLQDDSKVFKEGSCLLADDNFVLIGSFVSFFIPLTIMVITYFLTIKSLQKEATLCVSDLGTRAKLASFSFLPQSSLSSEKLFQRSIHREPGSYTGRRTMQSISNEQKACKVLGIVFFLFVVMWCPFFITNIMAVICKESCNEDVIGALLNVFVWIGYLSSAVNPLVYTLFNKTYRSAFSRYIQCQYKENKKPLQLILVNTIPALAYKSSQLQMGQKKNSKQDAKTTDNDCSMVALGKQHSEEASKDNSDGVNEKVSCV
Conditions: not given
Take `COc1cc(N)c(Cl)cc1C(=O)CCC1CCN(CCNS(=O)(=O)c2ccc(N)c(Br)c2)CC1`: the inhibition stood at 93.6%.

Test system in another data set: not listed separately
Kind of data set: Toxicity in NMRI mouse assessed as behavioral changes upto 100 mg/kg, ip measured 0.5 to 24 hrs. It is filed as organism-based. The following applies: in vivo, time 0.5-24 hrs.
As to `COc1cc(N)c(Cl)cc1C(=O)CCC1CCN(CCNS(=O)(=O)c2ccc(N)c(Br)c2)CC1`, the Activity entry is reported as “Non-Toxic”.

Another data set has as its target 5-hydroxytryptamine receptor 2B (Homo sapiens) (UniProt P41595). Kind of data set: Displacement of [125I]+/-DOI from human recombinant 5-HT2B receptor at 0.01 uM after 60 mins by scintillation counting analysis relative to control.
Conditions: not given
On to `COc1cc(N)c(Cl)cc1C(=O)CCC1CCN(CCNS(=O)(=O)c2ccc(N)c(Br)c2)CC1`, for which the inhibition was determined as 41%.

For another data set, the target named is 5-hydroxytryptamine receptor 4 (Cavia porcellus) (UniProt O70528). Description: Displacement of [3H]-GR113808 from guinea pig brain 5HT4 receptor at 0.01 uM in presence of serotonin incubated for 30 mins. Type of data set: tissue-based.
Conditions: not given
For `COc1ccc(S(=O)(=O)NCCN2CCC(CCC(=O)c3cc(Cl)c(N)cc3OC)CC2)cc1OC`, the inhibition stood at 30%.
The same measure, in the same setting: with `COc1ccc(S(=O)(=O)N2CCC(CCC(=O)c3cc(Cl)c(N)cc3OC)CC2)cc1` the figure was 10%.

The same data set, now with this note: filed as agonist.
In the case of `COc1cc(N)c(Cl)cc1C(=O)CCC1CCN(CCNS(=O)(=O)c2ccc(N)cc2)CC1`, the inhibition came out at 76%.
The same measure, in the same setting: the same measure for `COc1cc(N)c(Cl)cc1C(=O)CCC1CCN(CCNS(=O)(=O)c2ccc(N)c(Br)c2)CC1`: 60%.

In another data set the target is T3, 5-hydroxytryptamine receptor 2A. Description: Displacement of [3H]ketanserin human recombinant 5-HT2A receptor after 60 mins by scintillation counting analysis relative to control.
Conditions: not given
As to `COc1cc(N)c(Cl)cc1C(=O)CCC1CCN(CCNS(=O)(=O)c2ccc(N)c(Br)c2)CC1`, the pKi was 6.48.

In a further data set the test system is Mus musculus. Description: Anti-amnesic effect in scopolamine-induced memory impairment NMRI mouse model assessed as spatial working memory by measuring increase in spontaneous alteration at 10 mg/kg, ip measured after 30 mins by Y-maze test. Type of data set: functional, organism-based.
Conditions: not given
For the compound `COc1cc(N)c(Cl)cc1C(=O)CCC1CCN(CCNS(=O)(=O)c2ccc(N)c(Br)c2)CC1`, the outcome was inactive.

For another data set, the system named is Mus musculus. Kind of data set: Anti-amnesic effect in scopolamine-induced memory impairment NMRI mouse model assessed as spatial working memory by measuring increase in spontaneous alteration at 0.1 mg/kg, ip measured after 30 mins by Y-maze test. It is filed as functional, organism-based.
Conditions: not given
For `COc1cc(N)c(Cl)cc1C(=O)CCC1CCN(CCNS(=O)(=O)c2ccc(N)c(Br)c2)CC1`, the outcome was inactive.

A further data set has as its system Mus musculus. Kind of data set: Anti-amnesic effect in scopolamine-induced memory impairment NMRI mouse model assessed as spatial working memory by measuring increase in spontaneous alteration at 1 mg/kg, ip measured after 30 mins by Y-maze test. It is filed as functional, organism-based.
Conditions: not given
As to `COc1cc(N)c(Cl)cc1C(=O)CCC1CCN(CCNS(=O)(=O)c2ccc(N)c(Br)c2)CC1`, the result was Active.

A further data set addresses 5-hydroxytryptamine receptor 1D (Rattus norvegicus) (UniProt P28565). Description: Displacement of [3H]serotonin from recombinant rat 5-HT1D receptor at 10 uM after 60 mins by scintillation counting analysis relative to control.
Conditions: not given
As for `COc1cc(N)c(Cl)cc1C(=O)CCC1CCN(CCNS(=O)(=O)c2ccc(N)c(Br)c2)CC1`, the inhibition turned out to be 51.1%.

Another data set concerns the target T4, 5-hydroxytryptamine receptor 2C (Homo sapiens, UniProt P28335).
T4 sequence (P28335 whole entry): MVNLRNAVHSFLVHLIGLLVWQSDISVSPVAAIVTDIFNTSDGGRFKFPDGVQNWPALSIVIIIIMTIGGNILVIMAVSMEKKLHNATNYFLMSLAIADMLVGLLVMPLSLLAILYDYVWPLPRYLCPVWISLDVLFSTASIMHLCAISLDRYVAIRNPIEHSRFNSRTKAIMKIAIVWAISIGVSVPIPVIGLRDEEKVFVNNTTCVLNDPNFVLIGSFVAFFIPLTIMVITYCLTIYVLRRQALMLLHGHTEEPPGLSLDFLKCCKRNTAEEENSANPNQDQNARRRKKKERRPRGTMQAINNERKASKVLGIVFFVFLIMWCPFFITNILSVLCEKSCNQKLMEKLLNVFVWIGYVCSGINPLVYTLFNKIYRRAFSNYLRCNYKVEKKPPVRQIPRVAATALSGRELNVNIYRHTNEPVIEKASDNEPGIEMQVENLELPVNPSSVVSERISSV
Description: Displacement of [125I]+/-DOI from human recombinant 5-HT2C receptor after 60 mins by scintillation counting analysis.
Conditions: not given
Turning to `COc1cc(N)c(Cl)cc1C(=O)CCC1CCN(CCNS(=O)(=O)c2ccc(N)c(Br)c2)CC1`, the negative logarithm of the Ki (pKi) was 6.80.

The target in a further data set is T5, 5-hydroxytryptamine receptor 2C (Homo sapiens) (UniProt P28335).
T5 sequence (whole entry): T4 sequence (P28335 whole entry)
Description: Displacement of [125I]+/-DOI from human recombinant 5-HT2C receptor at 10 uM after 60 mins by scintillation counting analysis relative to control.
Conditions: not given
Consider `COc1cc(N)c(Cl)cc1C(=O)CCC1CCN(CCNS(=O)(=O)c2ccc(N)c(Br)c2)CC1`, for which the inhibition stood at 92.6%.

The target of a further data set is T2, 5-hydroxytryptamine receptor 6. Kind of data set: Displacement of [3H]-LSD from human 5-HT6 receptor expressed in HEK293 cells at 1 uM in presence of serotonin incubated for 60 mins. It is filed as cell-based.
Conditions: not given
On to `COc1ccc(S(=O)(=O)N2CCC(CCC(=O)c3cc(Cl)c(N)cc3OC)CC2)cc1`, for which the inhibition result was “inactive”.

The same data set, now with this note: filed as antagonist.
In the case of `COc1cc(N)c(Cl)cc1C(=O)CCC1CCN(CCNS(=O)(=O)c2ccc(N)cc2)CC1`, the inhibition turned out to be 46%.
The same measure, in the same setting: the same measure for `COc1ccc(S(=O)(=O)NCCN2CCC(CCC(=O)c3cc(Cl)c(N)cc3OC)CC2)cc1OC`: 58%; for `COc1cc(N)c(Cl)cc1C(=O)CCC1CCN(CCNS(=O)(=O)c2ccc(N)c(Br)c2)CC1`: 85%.

In a further data set the target is 5-hydroxytryptamine receptor 4 (Cavia porcellus, UniProt O70528). Description: Displacement of [3H]-GR113808 from guinea pig brain 5HT4 receptor in presence of serotonin incubated for 30 mins. Type of data set: tissue-based. To be noted: read-out: Ki.
5-hydroxytryptamine receptor 4, sequence (O70528 whole entry): as the sequence (O70528 whole entry) above
On to `COc1cc(N)c(Cl)cc1C(=O)CCC1CCN(CCNS(=O)(=O)c2ccc(N)cc2)CC1`, for which the pKi is 8.71.
Same read-out and setting: the same measure for `COc1ccc(S(=O)(=O)NCCN2CCC(CCC(=O)c3cc(Cl)c(N)cc3OC)CC2)cc1OC`: 8.09; for `COc1cc(N)c(Cl)cc1C(=O)CCC1CCN(CCNS(=O)(=O)c2ccc(N)c(Br)c2)CC1`: 8.28.
